Test results taken from PubChem BioAssay AID328 (DTP/NCI, 2004).
Values joined by “and” are separate entries in the source; they are usually repeats but may differ in a detail not shown here. Equal values may be shown once. Inconclusive results and toxic doses are left out.

System: BDF1 mice, P388 leukemia ip, median survival T/C
Assay: NCI In Vivo Anticancer Drug Screen. Data for tumor model P388 Leukemia (intraperitoneal) in B6D2F1 (BDF1) mice
Details: endpoint: median survival time, higher = longer survival
Method in brief: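 Steps: implant the tumour, treat one group with compound and another with vehicle, record survival, then divide treated by control.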

CC[C@]1(O)C[C@H]2CN(CCc3c([nH]c4ccccc34)[C@@](C(=O)OC)(c3cc4c(cc3OC)N(C=O)[C@H]3[C@@](O)(C(=O)OC)[C@H](OC(C)=O)[C@]5(CC)C=CCN6CC[C@]43[C@@H]65)C2)C1
T/C (dose: 0.03 mg/kg/injection, schedule: Q01DX009 (ip), vehicle: water): 86 % of control
T/C (dose: 0.03 mg/kg/injection, schedule: Q01DX010 (ip), vehicle: saline): 163 % of control and 172 % of control (2×)
T/C (dose: 0.06 mg/kg/injection, schedule: Q04DX003 (ip), vehicle: water): 90 % of control
T/C (dose: 0.08 mg/kg/injection, schedule: Q01DX009 (ip), vehicle: saline): 172 % of control
T/C (dose: 0.12 mg/kg/injection, schedule: Q01DX009 (ip), vehicle: saline): 300 % of control
T/C (dose: 0.13 mg/kg/injection, schedule: Q01DX010 (ip), vehicle: saline): 168 % of control
T/C (dose: 0.2 mg/kg/injection, schedule: Q01DX009 (ip), vehicle: saline): 231 % of control and 277 % of control
T/C (dose: 0.2 mg/kg/injection, schedule: Q04DX002 (ip), vehicle: saline): 163 % of control
T/C (dose: 0.22 mg/kg/injection, schedule: Q01DX009 (ip), vehicle: clinical formulation): 245 % of control
T/C (dose: 0.25 mg/kg/injection, schedule: Q01DX009 (ip), vehicle: saline): 275 % of control
T/C (dose: 0.25 mg/kg/injection, schedule: Q01DX010 (ip), vehicle: saline): 240 % of control and 254 % of control and 163 % of control
T/C (dose: 0.3 mg/kg/injection, schedule: Q01DX009 (ip), vehicle: saline): 289 % of control and 500 % of control
T/C (dose: 0.3 mg/kg/injection, schedule: Q04DX003 (ip), vehicle: saline): 186 % of control
T/C (dose: 0.45 mg/kg/injection, schedule: Q01DX009 (ip), vehicle: saline): 278 % of control and 336 % of control
T/C (dose: 0.48 mg/kg/injection, schedule: Q04DX003 (ip), vehicle: saline): 232 % of control and 150 % of control
T/C (dose: 0.5 mg/kg/injection, schedule: Q01DX009 (ip), vehicle: saline): 90 % of control
T/C (dose: 0.5 mg/kg/injection, schedule: Q01DX010 (ip), vehicle: saline): 86 % of control and 90 % of control
T/C (dose: 0.5 mg/kg/injection, schedule: Q04DX003 (ip), vehicle: water): 177 % of control
T/C (dose: 0.53 mg/kg/injection, schedule: Q04DX003 (ip), vehicle: saline): 183 % of control
T/C (dose: 0.8 mg/kg/injection, schedule: Q04DX003 (ip), vehicle: clinical formulation): 236 % of control
T/C (dose: 1.0 mg/kg/injection, schedule: Q01DX001 (ip), vehicle: water): 153 % of control
T/C (dose: 1.0 mg/kg/injection, schedule: Q04DX003 (ip), vehicle: water): 227 % of control
T/C (dose: 1.0 mg/kg/injection, schedule: Q04DX004 (ip), vehicle: saline): 233 % of control
T/C (dose: 1.1 mg/kg/injection, schedule: Q04DX003 (ip), vehicle: saline): 532 % of control and 180 % of control
T/C (dose: 1.2 mg/kg/injection, schedule: Q04DX003 (ip), vehicle: clinical formulation): 240 % of control
T/C (dose: 1.3 mg/kg/injection, schedule: Q04DX003 (ip), vehicle: saline): 250 % of control
T/C (dose: 1.5 mg/kg/injection, schedule: Q04DX004 (ip), vehicle: saline): 252 % of control
T/C (dose: 1.56 mg/kg/injection, schedule: Q04DX002 (ip), vehicle: saline): 90 % of control
T/C (dose: 1.65 mg/kg/injection, schedule: Q04DX003 (ip), vehicle: saline): 532 % of control
T/C (dose: 1.8 mg/kg/injection, schedule: Q04DX003 (ip), vehicle: clinical formulation): 113 % of control
T/C (dose: 2.0 mg/kg/injection, schedule: Q01DX001 (ip), vehicle: water): 168 % of control
T/C (dose: 2.0 mg/kg/injection, schedule: Q04DX003 (ip), vehicle: saline): 116 % of control
T/C (dose: 2.47 mg/kg/injection, schedule: Q04DX003 (ip), vehicle: saline): 166 % of control
T/C (dose: 4.0 mg/kg/injection, schedule: Q01DX001 (ip), vehicle: saline): 235 % of control and 163 % of control
T/C (dose: 4.0 mg/kg/injection, schedule: Q04DX003 (ip), vehicle: water): 111 % of control
T/C (dose: 15.6 micrograms/kg/injection, schedule: Q03HX008 (ip), vehicle: clinical formulation): 157 % of control
T/C (dose: 15.6 micrograms/kg/injection, schedule: Q03HX016 (ip), vehicle: clinical formulation): 185 % of control
T/C (dose: 31.2 micrograms/kg/injection, schedule: Q03HX008 (ip), vehicle: clinical formulation): 185 % of control
T/C (dose: 31.2 micrograms/kg/injection, schedule: Q03HX024 (ip), vehicle: clinical formulation): 233 % of control
T/C (dose: 62.0 micrograms/kg/injection, schedule: Q03HX024 (ip), vehicle: saline): 255 % of control
T/C (dose: 62.5 micrograms/kg/injection, schedule: Q03HX016 (ip), vehicle: clinical formulation): 257 % of control
T/C (dose: 62.5 micrograms/kg/injection, schedule: Q04DX003 (ip), vehicle: clinical formulation): 166 % of control
T/C (dose: 125.0 micrograms/kg/injection, schedule: Q03HX016 (ip), vehicle: clinical formulation): 314 % of control
T/C (dose: 125.0 micrograms/kg/injection, schedule: Q03HX024 (ip), vehicle: saline): 370 % of control
T/C (dose: 125.0 micrograms/kg/injection, schedule: Q04DX003 (ip), vehicle: clinical formulation): 180 % of control
T/C (dose: 125.0 micrograms/kg/injection, schedule: Q08DX002 (ip), vehicle: clinical formulation): 171 % of control
T/C (dose: 250.0 micrograms/kg/injection, schedule: Q01DX001 (ip), vehicle: clinical formulation): 161 % of control
T/C (dose: 250.0 micrograms/kg/injection, schedule: Q01DX009 (ip), vehicle: clinical formulation): 242 % of control
T/C (dose: 250.0 micrograms/kg/injection, schedule: Q03HX008 (ip), vehicle: clinical formulation): 247 % of control
T/C (dose: 250.0 micrograms/kg/injection, schedule: Q03HX024 (ip), vehicle: saline): 90 % of control
T/C (dose: 250.0 micrograms/kg/injection, schedule: Q08DX002 (ip), vehicle: clinical formulation): 176 % of control
T/C (dose: 360.0 micrograms/kg/injection, schedule: Q04DX003 (ip), vehicle: saline): 182 % of control
T/C (dose: 432.0 micrograms/kg/injection, schedule: Q04DX003 (ip), vehicle: saline): 249 % of control
T/C (dose: 500.0 micrograms/kg/injection, schedule: Q01DX001 (ip), vehicle: clinical formulation): 152 % of control
T/C (dose: 500.0 micrograms/kg/injection, schedule: Q03HX016 (ip), vehicle: clinical formulation): 123 % of control
T/C (dose: 500.0 micrograms/kg/injection, schedule: Q04DX003 (ip), vehicle: clinical formulation): 228 % of control
T/C (dose: 500.0 micrograms/kg/injection, schedule: Q04DX003 (ip), vehicle: saline): 248 % of control
T/C (dose: 500.0 micrograms/kg/injection, schedule: Q08DX002 (ip), vehicle: clinical formulation): 180 % of control
T/C (dose: 540.0 micrograms/kg/injection, schedule: Q04DX003 (ip), vehicle: saline): 240 % of control and 272 % of control
T/C (dose: 600.0 micrograms/kg/injection, schedule: Q01DX009 (ip), vehicle: saline): 120 % of control
T/C (dose: 600.0 micrograms/kg/injection, schedule: Q04DX003 (ip), vehicle: saline): 250 % of control and 182 % of control
T/C (dose: 648.0 micrograms/kg/injection, schedule: Q04DX003 (ip), vehicle: saline): 254 % of control
T/C (dose: 720.0 micrograms/kg/injection, schedule: Q04DX003 (ip), vehicle: saline): 225 % of control and 291 % of control
T/C (dose: 900.0 micrograms/kg/injection, schedule: Q04DX003 (ip), vehicle: saline): 280 % of control and 322 % of control
T/C (dose: 1000.0 micrograms/kg/injection, schedule: Q04DX003 (ip), vehicle: clinical formulation): 571 % of control
T/C (dose: 1000.0 micrograms/kg/injection, schedule: Q08DX002 (ip), vehicle: clinical formulation): 228 % of control
T/C (dose: 1080.0 micrograms/kg/injection, schedule: Q04DX003 (ip), vehicle: saline): 292 % of control
T/C (dose: 1200.0 micrograms/kg/injection, schedule: Q04DX003 (ip), vehicle: saline): 225 % of control and 116 % of control
T/C (dose: 1500.0 micrograms/kg/injection, schedule: Q04DX003 (ip), vehicle: saline): 278 % of control and 320 % of control
T/C (dose: 1800.0 micrograms/kg/injection, schedule: Q04DX003 (ip), vehicle: saline): 294 % of control
T/C (dose: 2000.0 micrograms/kg/injection, schedule: Q04DX003 (ip), vehicle: clinical formulation): 95 % of control
T/C (dose: 2000.0 micrograms/kg/injection, schedule: Q08DX002 (ip), vehicle: clinical formulation): 300 % of control
T/C (dose: 4000.0 micrograms/kg/injection, schedule: Q01DX001 (ip), vehicle: clinical formulation): 233 % of control
T/C (dose: 4000.0 micrograms/kg/injection, schedule: Q08DX002 (ip), vehicle: clinical formulation): 238 % of control
